# In ChEMBL document CHEMBL4680212, “Discovery of T-1101 tosylate as a first-in-class clinical candidate for Hec1/Nek2 inhibition in cancer therapy” (Eur J Med Chem, 2020):
# Calls of active or inactive are those of the source. No cut-off for these calls is given here.
# How the values were obtained:
# HEC1/NEK2 (Homo sapiens) [1] = molecular target: T1, HEC1/NEK2 (Homo sapiens) (UniProt P51955+O14777); assay: Inhibition of Hec1-Nek2 protein-protein interaction in human K562 cells at 100 nM measured after 6 hrs by coimmunoprecipitation assay; type: cell-based
# T1 sequence (O14777 whole entry, looked up): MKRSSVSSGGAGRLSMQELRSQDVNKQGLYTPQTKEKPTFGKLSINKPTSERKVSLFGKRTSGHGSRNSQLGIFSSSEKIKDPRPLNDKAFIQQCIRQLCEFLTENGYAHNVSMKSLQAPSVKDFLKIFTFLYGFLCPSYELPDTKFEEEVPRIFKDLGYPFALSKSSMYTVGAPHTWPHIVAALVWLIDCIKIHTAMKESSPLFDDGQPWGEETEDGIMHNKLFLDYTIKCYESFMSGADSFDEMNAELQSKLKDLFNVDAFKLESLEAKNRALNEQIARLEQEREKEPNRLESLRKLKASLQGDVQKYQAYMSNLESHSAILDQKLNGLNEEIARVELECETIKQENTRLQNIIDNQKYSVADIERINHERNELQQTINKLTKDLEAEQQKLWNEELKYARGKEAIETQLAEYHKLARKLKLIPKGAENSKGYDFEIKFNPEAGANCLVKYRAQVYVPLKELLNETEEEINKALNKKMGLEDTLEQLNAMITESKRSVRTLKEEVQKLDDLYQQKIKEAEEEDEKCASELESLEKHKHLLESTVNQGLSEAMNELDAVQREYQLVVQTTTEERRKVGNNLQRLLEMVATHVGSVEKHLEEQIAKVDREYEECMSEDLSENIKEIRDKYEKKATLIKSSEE
# T1 sequence (P51955 whole entry, looked up): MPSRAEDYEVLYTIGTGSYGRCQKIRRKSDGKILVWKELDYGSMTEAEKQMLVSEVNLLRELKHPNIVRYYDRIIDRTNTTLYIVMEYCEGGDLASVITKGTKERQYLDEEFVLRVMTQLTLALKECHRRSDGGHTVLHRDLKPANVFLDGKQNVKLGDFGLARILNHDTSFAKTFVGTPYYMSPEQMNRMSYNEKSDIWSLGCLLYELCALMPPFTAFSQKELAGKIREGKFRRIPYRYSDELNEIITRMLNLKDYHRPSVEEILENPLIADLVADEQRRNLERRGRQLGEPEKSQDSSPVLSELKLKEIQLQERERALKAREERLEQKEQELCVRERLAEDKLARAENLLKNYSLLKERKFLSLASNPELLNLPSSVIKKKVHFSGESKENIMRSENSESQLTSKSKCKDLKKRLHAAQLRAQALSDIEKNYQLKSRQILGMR
# HEC1/NEK2 (Homo sapiens) [2] = molecular target: T1, HEC1/NEK2 (Homo sapiens); assay: Inhibition of Hec1-Nek2 protein-protein interaction in human K562 cells assessed as reduction in Nek2 level at 1 uM by Western blot analysis; type: cell-based; details: TDE = time-dependent effect
# HeLa [3] = assay: Induction of apoptosis in human HeLa cells assessed as increase in cleaved caspase 3 protein expression at 1 uM measured after 24 hrs by Western blot analysis; type: functional, cell-based
# HeLa [4] = assay: Induction of apoptosis in human HeLa cells assessed as increase in cleaved PARP protein expression at 1 uM measured after 24 hrs by Western blot analysis; type: functional, cell-based
# HeLa [5] = assay: Induction of apoptosis in human HeLa cells assessed as decrease in Mcl-1 expression at 1 uM measured after 24 hrs by Western blot analysis; type: functional, cell-based
# HeLa [6] = assay: Induction of apoptosis in human HeLa cells assessed as decrease in XIAP expression at 1 uM measured after 24 hrs by Western blot analysis; type: functional, cell-based
# HeLa [7] = assay: Induction of apoptosis in human HeLa cells assessed as decrease in cyclin A1 expression at 1 uM measured after 24 hrs by Western blot analysis; type: functional, cell-based
# HeLa [8] = assay: Induction of apoptosis in human HeLa cells assessed as decrease in cyclin B1 expression at 1 uM measured after 24 hrs by Western blot analysis; type: functional, cell-based
# HeLa [9] = assay: Induction of apoptosis in human HeLa cells assessed as decrease in cyclin D1 expression at 1 uM measured after 24 hrs by Western blot analysis; type: functional, cell-based
# MES-SA/Dx5 = assay: Antiproliferative activity against human MES-SA/Dx5 cells measured after 96 hrs by CellTiter 96 Aqueous One Solution Reagent based assay; type: functional, cell-based
# NCI/ADR-RES = assay: Antiproliferative activity against human NCI/ADR-RES cells measured after 96 hrs by CellTiter 96 Aqueous One Solution Reagent based assay; type: functional, cell-based
# HeLa [10] = assay: Down regulation of Pgp expression in human HeLa cells; type: functional, cell-based
# MDA-MB-231 [11] = assay: Down regulation of Pgp expression in human MDA-MB-231 cells; type: functional, cell-based
# MDA-MB-231 [12] = assay: Antitumor activity against human MDA-MB-231 cells xenografted in SCID mouse assessed as tumor growth at 150 mg/kg, po administered twice daily for 28 days measured post last dose relative to control; type: functional; details: time 28 day
inhibition (HEC1/NEK2 (Homo sapiens) [1]),Activity (HEC1/NEK2 (Homo sapiens) [2]),Compound,Activity (HeLa [3]),Activity (HeLa [4]),Activity (HeLa [5]),Activity (HeLa [6]),Activity (HeLa [7]),Activity (HeLa [8]),Activity (HeLa [9]),Activity (MES-SA/Dx5),Activity (NCI/ADR-RES),Activity (HeLa [10]),Activity (MDA-MB-231 [11]),T/C (MDA-MB-231 [12]) [%]
Active,Tde,COCCOc1cnc(Sc2cc(C)c(-c3csc(NC(=O)c4ccncc4)n3)c(C)c2)cn1,Active,Active,Active,Active,Active,Active,Active,Active,Active,Active,Active,–
–,–,COc1ccc(Oc2cc(C)c(-c3csc(NC(=O)c4ccncc4)n3)c(C)c2)cc1,–,–,–,–,–,–,–,–,–,–,–,50
